Test results published in patent US9895314B2, “Delayed release pharmaceutical formulation containing porous carrier particles for colon targeting” (Tillotts Pharma AG, priority 2014, dated 2018).

Test: Accelerated stability study, compatibility of MBZ and FCC (HPLC-UV)
Format: physicochemical
Conditions: drug loaded FCC with 20 and 50% drug content, 25° C., 40° C. and 60° C., 25 days
Method: The compatibility of MBZ and FCC was investigated by an accelerated stability study. Drug loaded FCC particles with 20 and 50% drug content were stored at 25° C., 40° C. and 60° C. over a period of 25 days. On several days the MBZ content was analyzed by HPLC-UV.

Question: With Cc1ncc([N+](=O)[O-])n1CCOC(=O)c1ccccc1 [MBZ, metronidazole benzoate] as the molecule, how does the “degradation products from hydrolysis (metronidazole, benzoic acid) detected” value read?
Answer: not any degradation products
